In patent US10294237B2, “Bicyclic heterocyclic amide derivative” (Sumitomo Dainippon Pharma Co., Ltd., priority 2015, dated 2019):

Assays:
HCT-116 cells [1] = assay: Test for inhibiting sphere-forming ability of cancer cells; type: cell-based; settings: HCT-116 spheres, non-adherent, serum-free, 4 days, CellTiter-Glo, read-out: IC50 (Sphere IC50 value; concentration for 50% inhibition of cell proliferation)
Experimental: (§1) The reliable methods established for measuring the self-renewal ability of cells which is one of the CSC's properties include a method for measuring the sphere-forming ability of cancer cells in non-adherent condition in the absence of serum (Cancer Res 65, 5506-5511 (2005)). HCT-116 cells were available from the American Type Culture Collection (ATCC). HCT-116 cells were cultured at 37° C. and 5% CO2 using the McCoy's 5a medium containing 10% fetal bovine serum (FBS) and 1% penicillin/streptomycin. HCT-116 cells were seeded in a 384 Well Black Clear Bottom Ultra-Low Attachment Microplate (Corning Cat. No. 3827) in an amount of 350-800 cells/well using the DMEM/F12 medium containing 2% B27 supplement (GIBCO), 20 ng/mL epidermal growth factor (EGF) (peprotech), 10 ng/mL basic fibroblast growth factor (bFGF) (peprotech), 5 μg/mL insulin (Sigma), and 1% penicillin/streptomycin. The test compounds were added into each well to adjust the final concentration of DMSO to 0.1%, and the cells were cultured for 4 days. The number of viable cells in each well was then measured with CellTiter-Glo® Luminescent Cell Viability Assay (Promega) to calculate the concentration of each test compound for 50% inhibition of cell proliferation (Sphere IC50 value; μmol/L).
The experiment of Test Example 1 was performed for the compounds of each Example. The concentrations of each test compound for 50% inhibition of cell profeliration (Sphere IC50 value; μmol/L) are shown in the following Table.

HCT-116 cells [2] = assay: Test for inhibiting sphere-forming ability of cancer cells (in the presence of BSA); type: cell-based; settings: HCT-116 spheres, non-adherent, 5% BSA, 4 days, CellTiter-Glo, read-out: IC50 (Sphere IC50 value; concentration for 50% inhibition of cell proliferation)
Experimental: as §1, with “HCT-116” for “The reliable methods established for measuring the self-renewal ability of cells which is one of the CSC's properties include a method for measuring the sphere-forming ability of cancer cells in non-adherent condition in the absence of serum (Cancer Res 65, 5506-5511 (2005)). HCT-116”, “(Sigma), 5% bovine serum albumin (BSA),” for “(Sigma),”
The experiment of Test Example 2 was performed for the compounds of each Example. The concentrations of each test compound for 50% inhibition of cell profeliration (Sphere IC50 value; μmol/L) are shown in the following Table.

| IC50 (HCT-116 cells [1]; Homo sapiens, 96 h) | IC50 (HCT-116 cells [2]; Homo sapiens, HCT-116, 96 h) | IC50 (HCT-116 cells [1]) | IC50 (HCT-116 cells [2]) | SMILES |
| --- | --- | --- | --- | --- |
| 60 nM | 50 nM |  |  | O=C(Nc1cn(Cc2ccc(Cl)c(F)c2)cn1)c1cnc2c(c1)CCNC2 [Example 51, N-[1-(4-chloro-3-fluorobenzyl)-1H-imidazol-4-yl]-5,6,7,8-tetrahydro-1,7-naphthyridine-3-carboxamide] |
| 60 nM | 60 nM |  |  | O=C(Nc1cn(Cc2cc(F)cc(Cl)c2)cn1)c1cnc2c(c1)CCNC2 [Example 52, N-[1-(3-chloro-5-fluorobenzyl)-1H-imidazol-4-yl]-5,6,7,8-tetrahydro-1,7-naphthyridine-3-carboxamide] |
| 60 nM | 60 nM |  |  | O=C(Nc1cn(Cc2ccc(F)c(C(F)(F)F)c2)cn1)c1cnc2c(c1)CCNC2 [Example 53, N-{1-[4-fluoro-3-(trifluoromethyl)benzyl]-1H-imidazol-4-yl}-5,6,7,8-tetrahydro-1,7-naphthyridine-3-carboxamide] |
| < 10 nM | 30 nM |  |  | O=C(Nc1cn(Cc2ccc(Cl)c(C(F)(F)F)c2)cn1)c1cnc2c(c1)CCNC2 [Example 54, N-{1-[4-chloro-3-(trifluoromethyl)benzyl]-1H-imidazol-4-yl}-5,6,7,8-tetrahydro-1,7-naphthyridine-3-carboxamide] |
|  |  | 80 nM | 50 nM | O=C(Nc1cn(CC2CCCCC2)cn1)c1cnc2c(c1)CCNC2 [Example 55] |
|  |  | 70 nM | 160 nM | O=C(Nc1cn(CCC2CCCCC2)cn1)c1cnc2c(c1)CCNC2 [Example 56] |
|  |  | 180 nM | 80 nM | COc1cccc(Cn2cnc(NC(=O)c3cnc4c(c3)CCNC4)c2)c1 [Example 58] |
|  |  | 610 nM | 370 nM | O=C(Nc1cn(Cc2ccccc2)cn1)c1cnc2c(c1)CCNC2 [Example 59] |
|  |  | 250 nM | 100 nM | Cc1ccccc1Cn1cnc(NC(=O)c2cnc3c(c2)CCNC3)c1 [Example 60] |
|  |  | 370 nM | 60 nM | O=C(Nc1cn(Cc2ccc(F)cc2)cn1)c1cnc2c(c1)CCNC2 [Example 61] |
|  |  | 710 nM | 590 nM | O=C(Nc1cn(Cc2ccccc2C(F)(F)F)cn1)c1cnc2c(c1)CCNC2 [Example 62] |
|  |  | 3590 nM | 710 nM | N#Cc1cccc(Cn2cnc(NC(=O)c3cnc4c(c3)CCNC4)c2)c1 [Example 63] |
| 90 nM | 170 nM |  |  | O=C(Nc1cn(Cc2ccc(C(F)(F)F)cc2)cn1)c1cnc2c(c1)CCNC2 [Example 64, N-{1-[4-(trifluoromethyl)benzyl]-1H-imidazol-4-yl}-5,6,7,8-tetrahydro-1,7-naphthyridine-3-carboxamide] |
| 80 nM | 380 nM |  |  | O=C(Nc1cn(Cc2ccc(Cl)cc2)cn1)c1cnc2c(c1)CCNC2 [Example 65, N-[1-(4-chlorobenzyl)-1H-imidazol-4-yl]-5,6,7,8-tetrahydro-1,7-naphthyridine-3-carboxamide] |
|  |  | 700 nM | 5490 nM | O=C(Nc1cn(Cc2ccc3ccccc3c2)cn1)c1cnc2c(c1)CCNC2 [Example 66] |
|  |  | 560 nM | 650 nM | Cc1ccc(Cn2cnc(NC(=O)c3cnc4c(c3)CCNC4)c2)cc1 [Example 68] |
|  |  | 760 nM | 680 nM | O=C(Nc1cn(CCCc2ccccc2)cn1)c1cnc2c(c1)CCNC2 [Example 69] |
| 40 nM | 60 nM |  |  | O=C(Nc1cn(Cc2cc(Cl)cc(OC(F)(F)F)c2)cn1)c1cnc2c(c1)CCNC2 [Example 70, N-{1-[3-chloro-5-(trifluoromethoxy)benzyl]-1H-imidazol-4-yl}-5,6,7,8-tetrahydro-1,7-naphthyridine-3-carboxamide] |
|  |  | 920 nM | 770 nM | O=C(Nc1cn(Cc2ccccc2)cn1)c1ccc2c(c1)CCNC2 [Example 71] |
|  |  | 3450 nM | 5460 nM | O=C(Nc1cn(Cc2ccccc2F)cn1)c1ccc2c(c1)CCNC2 [Example 72] |
|  |  | 610 nM | 540 nM | O=C(Nc1cn(Cc2ccc(F)c(F)c2)cn1)c1ccc2c(c1)CCNC2 [Example 73] |

| IC50 (HCT-116 cells [1]; Homo sapiens, 96 h) | IC50 (HCT-116 cells [2]; Homo sapiens, HCT-116, 96 h) | IC50 (HCT-116 cells [1]) | IC50 (HCT-116 cells [2]) | SMILES |
| --- | --- | --- | --- | --- |
|  |  | 490 nM | 490 nM | O=C(Nc1cn(Cc2cc(F)cc(F)c2)cn1)c1ccc2c(c1)CCNC2 [Example 74] |
|  |  | 400 nM | 610 nM | O=C(Nc1cn(Cc2ccc(OC(F)(F)F)cc2)cn1)c1ccc2c(c1)CCNC2 [Example 75] |
|  |  | 680 nM | 590 nM | Cc1ccccc1Cn1cnc(NC(=O)c2ccc3c(c2)CCNC3)c1 [Example 76] |
|  |  | 620 nM | 600 nM | O=C(Nc1cn(Cc2cccc(F)c2)cn1)c1ccc2c(c1)CCNC2 [Example 77] |
|  |  | 560 nM | 560 nM | COc1cccc(Cn2cnc(NC(=O)c3ccc4c(c3)CCNC4)c2)c1 [Example 78] |
|  |  | 550 nM | 490 nM | O=C(Nc1cn(Cc2ccc(F)cc2)cn1)c1ccc2c(c1)CCNC2 [Example 79] |
|  |  | 620 nM | 600 nM | Cc1cccc(Cn2cnc(NC(=O)c3ccc4c(c3)CCNC4)c2)c1 [Example 80] |
|  |  | 950 nM | 6220 nM | Cc1ccc(Cn2cnc(NC(=O)c3ccc4c(c3)CCNC4)c2)cc1 [Example 81] |
|  |  | 3790 nM | 4900 nM | O=C(Nc1cn(Cc2ccccc2C(F)(F)F)cn1)c1ccc2c(c1)CCNC2 [Example 82] |
|  |  | 720 nM | 540 nM | O=C(Nc1cn(Cc2ccc(C(F)(F)F)cc2)cn1)c1ccc2c(c1)CCNC2 [Example 83] |
|  |  | 610 nM | 590 nM | O=C(Nc1cn(CC2CCCCC2)cn1)c1ccc2c(c1)CCNC2 [Example 85] |
|  |  | 470 nM | 560 nM | O=C(Nc1cn(CCC2CCCCC2)cn1)c1ccc2c(c1)CCNC2 [Example 86] |
|  |  | 600 nM | 580 nM | O=C(Nc1cn(Cc2ccc(Cl)cc2)cn1)c1ccc2c(c1)CCNC2 [Example 87] |
|  |  | 5030 nM | 950 nM | N#Cc1cccc(Cn2cnc(NC(=O)c3ccc4c(c3)CCNC4)c2)c1 [Example 88] |
| 70 nM | 640 nM |  |  | O=C(Nc1cn(Cc2cccc(Oc3ccccc3)c2)cn1)c1ccc2c(c1)CCNC2 [Example 89, N-[1-(3-phenoxybenzyl)-1H-imidazol-4-yl]-1,2,3,4-tetrahydroisoquinoline-6-carboxamide] |
| 70 nM | 100 nM |  |  | O=C(Nc1cn(Cc2ccc(Cl)c(F)c2)cn1)c1ccc2c(c1)CCNC2 [Example 90, N-[1-(4-chloro-3-fluorobenzyl)-1H-imidazol-4-yl]-1,2,3,4-tetrahydroisoquinoline-6-carboxamide] |
| 70 nM | 80 nM |  |  | O=C(Nc1cn(Cc2cc(F)cc(Cl)c2)cn1)c1ccc2c(c1)CCNC2 [Example 91, N-[1-(3-chloro-5-fluorobenzyl)-1H-imidazol-4-yl]-1,2,3,4-tetrahydroisoquinoline-6-carboxamide] |
| 70 nM | 90 nM |  |  | O=C(Nc1cn(Cc2ccc(F)c(C(F)(F)F)c2)cn1)c1ccc2c(c1)CCNC2 [Example 92, N-{1-[4-fluoro-3-(trifluoromethyl)benzyl]-1H-imidazol-4-yl}-1,2,3,4-tetrahydroisoquinoline-6-carboxamide] |
| < 10 nM | 70 nM |  |  | O=C(Nc1cn(Cc2ccc(Cl)c(C(F)(F)F)c2)cn1)c1ccc2c(c1)CCNC2 [Example 93, N-{1-[4-chloro-3-(trifluoromethyl)benzyl]-1H-imidazol-4-yl}-1,2,3,4-tetrahydroisoquinoline-6-carboxamide] |
| 6990 nM | 6110 nM |  |  | COc1cc(Cn2cnc(NC(=O)c3ccc4c(c3)CCNC4)c2)cc(OC)c1 [Example 94] |
| 80 nM | 90 nM |  |  | O=C(Nc1cn(Cc2ccc(F)c(Cl)c2)cn1)c1ccc2c(c1)CCNC2 [Example 95, N-[1-(3-chloro-4-fluorobenzyl)-1H-imidazol-4-yl]-1,2,3,4-tetrahydroisoquinoline-6-carboxamide] |
